Experimental data reported in patent publication US12617757B2, “Compounds and modules for inhibition of pre-miR-21 and their use in treatment of certain cancers” (University of Florida Research Foundation, Incorporated, priority 2019, dated 2026).
“Also recorded” adds a separate entry of the source. Like-named read-outs stand apart in the source and are kept apart here.

Legend:
[1] = test system: pre-miR-21 WT RNA; experiment: In vitro Dicer processing of pre-miR-21 WT; type: biochemical
Excerpt: In vitro Dicer processing. […] Cleavage products were resolved on a denaturing 15% polyacrylamide gel, which was imaged using a Molecular Dynamics Typhoon phosphorimager and quantified with Bio-Rad's QuantityOne software, normalizing to full length RNA.

[2] = test system: pre-miR-21; experiment: RT-qPCR of mature miR-21 and pre-miR-21 levels in MDA-MB-231 cells; type: cell-based, human; conditions: for period over which significantly decreased miR-21 levels were observed after a single dose: Formula 2 1000 nM, Formula 5 50 nM; for effect on mature miR-21 levels / effect on pre-miR-21 levels: MDA-MB-231, RT-qPCR; for effect on pre-miR-21 upon siRNA ablation of RNase L: 5 at 50 nM
Experimental: (§1) Cell culture compound treatment and transfection. For treatment with compounds, stocks in DMSO or water were diluted in growth media and added to cells for 24-72 h. For transfection of plasmid DNA to overexpress the miR-21 hairpin precursor in pcDNA3.1 (Addgene 21114) or pcDNA3-RNaseL (R. H. Silverman, Cleveland Clinic^24) in 24-well plates, Lipofectamine 2000 was used according to the manufacturer's protocol. After transfection, the medium was removed and replaced with growth medium containing compound prepared as described above. For transfection of a control (Santa Cruz Biotechnology: sc-37007) or RNase L targeting siRNA (Santa Cruz Biotechnology: sc-45965), Lipofectamine RNAiMAX Reagent was used for transfection of oligonucleotides, including 2′-5′ A4, according to the manufacturer's protocol.

[3] = test system: PDCD4; experiment: PDCD4 Western blot in MDA-MB-231 cells; type: cell-based, human; conditions: for effect on PDCD4 protein levels: Western blotting relative to β-actin
Experimental: PDCD4 Western blot: The MDA-MB-231 cells were grown to ˜60% confluency in 6-well plates. Cells were incubated with compounds diluted in growth media for 48 h. Total protein was extracted using M-PER Mammalian Protein Extraction Reagent (Pierce Biotechnology) supplemented with 1×Protease Inhibitor Cocktail III for Mammalian Cells (Research Products International Corp.) per the manufacturer's protocol. Total protein lysate was quantified using a Micro BCA Protein Assay Kit (Pierce Biotechnology). A 30 μg aliquot of total protein was resolved on a 10% Bis-Tris SDS-polyacrylamide gel, with a 5% stacking layer, and then transferred to a PVDF membrane. The membrane was then blocked in 5% (w/v) nonfat dry milk in 1×TBST for 1 h at room temperature. The membrane was then incubated with 1:2000 rabbit mAb PDCD4 primary antibody (Cell Signaling Technology: D29C6) in 1×TBST containing 5% nonfat dry milk overnight at 4° C. The membrane was washed five times for 5 min each with 1×TBST and then incubated with 1:5000 anti-rabbit IgG horseradish peroxidase secondary antibody conjugate (Cell Signaling Technology: 7074S) in 1×TBST containing 5% nonfat dry milk for 1 h at room temperature. After washing seven times for 5 min each with 1×TBST, protein levels were quantified by chemiluminescence using a SuperSignal West Pico Chemiluminescent Substrate (Pierce Biotechnology) per the manufacturer's recommendations. The membrane was stripped with 1×Stripping Buffer (200 mM glycine, pH 2.2, 1% Tween-20 and 0.1% SDS) two times for 5 min each, followed by washing 3 times in 1×TBST. Then, the membrane was blocked and probed for β-actin following the same procedure described above using 1:5000 mouse β-actin primary antibody (Cell Signaling Technology: 8H10D10). The membrane was washed five times with 1×TBST and incubated with 1:10000 anti-mouse IgG horseradish-peroxidase secondary antibody conjugate (Cell Signaling Technology: 7076S). After washing seven times with 1×TBST for 5 min each, protein levels were quantified as described above. ImageJ software was used to quantify band intensities.

[4] = test system: MDA-MB-231 cells; experiment: Boyden chamber invasion assay, MDA-MB-231; type: cell-based, human; conditions: for effect on invasion: MDA-MB-231, LNA-21 100 nM, 2 1000 nM; for effect on invasion upon transient expression of pre-miR-21: MDA-MB-231 + pre-miR-21
Experimental: (§2) Boyden Chamber Invasion Assay. The MDA-MB-231, MDA-LM2, A375, A549, or MCF-10a cells (5×10^4) were seeded into Hanging Cell Culture Inserts for 24 well plates with uncoated membranes with 8.0 μm pores (Millicell) in serum free growth media. A 3 mg/mL layer (100 μL) of Matrigel (Fisher Scientific: CB40234) diluted with serum free growth media was prepared inside of each membrane. Cells were cultured as described above, with or without compound treatment, and allowed to invade towards complete growth media in the bottom well for 16-24 h before ending the experiment by removing the media in the bottom wells and inserts. The hanging cell culture inserts and bottom wells were washed twice with 1×PBS, gently shaking to mix. Excess liquid and cells inside the insert were removed with cotton swabs, after which 400 μL of 4% paraformaldehyde was placed into the bottom well and incubated for 20 min at room temperature to fix the cells. The wells and inserts were washed twice with 1×PBS and then treated with 400 μL of 0.1% crystal violet solution for 20 min at room temperature to stain the cells. The wells and inserts were washed twice with water, followed by one wash with 1×PBS. Inserts were dried with cotton swabs to remove extra stain and cells inside the insert, then were air-dried, followed by Brightfield microscopic analysis using a Leica DMI3000 B upright fluorescent microscope. Four different fields of view from each captured image were counted for crystal violet stained or unstained cells. Normalized cells invaded was calculated with equation 5 (Eq 5): […]
(§3) where stained cells represent cells counted with crystal violet stain observed in the compound treated or vehicle treated samples, respectively.

[5] = test system: A549 cells; experiment: Boyden chamber invasion assay, A549; type: cell-based; conditions: LNA-21 100 nM, 2 1000 nM
Experimental: as §2, with “The wells and inserts were washed twice with 1×PBS and then treated with 400 μL of 0.1% crystal violet solution for 20 min at room temperature to stain the cells. The wells and inserts were washed twice with water, followed by one wash with 1×PBS. Inserts were dried with cotton swabs to remove extra stain and cells inside the insert, then were air-dried, followed by Brightfield microscopic analysis using a Leica DMI3000 B upright fluorescent microscope.” left out
as §3

[6] = test system: A375 cells; experiment: Boyden chamber invasion assay, A375; type: cell-based; conditions: LNA-21 100 nM, 2 1000 nM
Experimental: as §2, with “The wells and inserts were washed twice with 1×PBS and then treated with 400 μL of 0.1% crystal violet solution for 20 min at room temperature to stain the cells. The wells and inserts were washed twice with water, followed by one wash with 1×PBS. Inserts were dried with cotton swabs to remove extra stain and cells inside the insert, then were air-dried, followed by Brightfield microscopic analysis using a Leica DMI3000 B upright fluorescent microscope.” left out
as §3

[7] = test system: miR-21 in various cancer cell lines; experiment: RT-qPCR of mature miR-21 in various cancer cell lines; type: cell-based
[8] = test system: Ifng, OAS1, RIG-I, MDA5 mRNAs; experiment: RT-qPCR of antiviral innate immune response mRNAs in MDA-MB-231 cells; type: cell-based, human
Experimental: as §1

In the case of `CCCN(CC(=O)N(CCC)CC(=O)N(CCC)CC(=O)N(CC(N)=O)Cc1cn(CCCNC(=O)CCCOc2ccc(-c3nc4cc(-c5ccc(N6CCN(C)CC6)cc5)ccc4[nH]3)cc2)nn1)C(=O)CNCc1cn(CCCNC(=O)CCCOc2ccc(-c3nc4cc(-c5ccc(N6CCN(C)CC6)cc5)ccc4[nH]3)cc2)nn1` [Compound 2], the “inhibition of / protection from Dicer processing” value [1] is reported as “Protection with compound is observed at U23 (boxes marked with arrows) and U26 and U27”, the “period over which significantly decreased miR-21 levels were observed after a single dose” value ([2]; MDA-MB-231) is reported as 48 h and the “effect on mature miR-21 levels” value [2] is reported as “decreased miR-21 levels; also recorded: decreases mature miR-21 levels”. For the same compound, the “effect on pre-miR-21 levels” value [2] was “increased pre-miR-21 levels; also recorded: boosted levels of pre-miR 21”, the IC50 ([2]; MDA-MB-231, read-out: IC50, affecting pre-miR-21 in cells) was 1000 nM and the “increase of PDCD4 levels” value ([3]; 1 μM, MDA-MB-231) was roughly 50%. The “effect on PDCD4 protein levels” value [3] was “de-repress levels of PDCD4 protein”, the effect on invasion [4] was “decreased the invasive phenotype” and the effect on invasion ([4]; listed as Formula 2) was “inhibited the invasive properties of MDA-MB-231”. For the same compound, the effect on invasion [5] was “decreased the invasive phenotype”, the effect on invasion [6] was “decreased the invasive phenotype” and the “effect on mature miR-21 levels” value [7] was “silenced miR-21”.
In the case of `CCCN(CC(=O)N(CCC)CC(=O)N(CCC)CC(=O)N(CC(=O)NCCOCCOCCOCCOc1ccc(C=C2SC(Nc3ccccc3)=C(C(=O)OCC)C2=O)cc1O)Cc1cn(CCCNC(=O)CCCOc2ccc(-c3nc4cc(-c5ccc(N6CCN(C)CC6)cc5)ccc4[nH]3)cc2)nn1)C(=O)CN(Cc1cn(CCCNC(=O)CCCOc2ccc(-c3nc4cc(-c5ccc(N6CCN(C)CC6)cc5)ccc4[nH]3)cc2)nn1)C(C)=O` [Compound 5], the “effect on pre-miR-21 upon siRNA ablation of RNase L” value ([2]; MDA-MB-231) is reported as “diminished effects”, the “effect on pre-miR-21 upon siRNA ablation of RNase L” value ([2]; MDA-MB-231, listed as Formula 5) is reported as “decreased the ability of Formula 5 to cleave pre-miR-21” and the “period over which significantly decreased miR-21 levels were observed after a single dose” value ([2]; MDA-MB-231) is reported as 96 h. For the same compound, the “enhanced activity for affecting miR-21 levels over parent 2” value ([2]; MDA-MB-231) was 20 fold, the “potency of enzymatic cleavage versus bleomycin conjugate of 2” value ([2]; MDA-MB-231) was 10 fold and the “effect on mature miR-21 levels” value [2] was “decreased miR-21 levels”. For the same compound, the “effect on pre-miR-21 levels” value [2] was “decreased pre-miR-21”, the “effect on pre-miR-21 levels” value ([2]; listed as Formula 5) was “diminished” and the IC50 ([2]; MDA-MB-231, read-out: IC50, affecting miR-21 levels) was roughly 50 nM. The “effect on PDCD4 protein levels” value [3] was “de-repress levels of PDCD4 protein”, the “effect on invasion upon transient expression of pre-miR-21” value [4] was “ablated” and the “effect on invasion upon transient expression of pre-miR-21” value ([4]; listed as Formula 5) was “ablated the inhibitory effect”. The effect on invasion [4] was “significant decrease of invasion”, the effect on invasion ([4]; listed as Formula 5) was “effectively inhibited invasion” and the effect on invasion ([5]; listed as Formula 5) was “decreased invasiveness”. The effect on invasion ([6]; listed as Formula 5) was “decreased invasiveness”, the “levels of mRNAs associated with the antiviral innate immune response” value ([8]; 5 50 nM, 2′-5′ A4 500 nM transfected) was “No upregulation” and the “modulation of innate immunity biomarkers (RT-qPCR and ELISA)” value ([8]; MDA-MB-231) was “No significant changes were observed”. For the same compound, the “effect on mature miR-21 levels” value [7] was “decreased mature miR-21 levels” and the “effect on mature miR-21 levels” value ([7]; listed as Formula 5) was “significantly inhibited miR-21 levels”.
